Laboratory results published in PubChem BioAssay (NCI).
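96-well plates; 48 h exposure; 5 concentrations. Endpoints by linear interpolation between flanking doses. Not reached: highest tested concentration assigned. TGI: concentration producing complete growth inhibition.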

Experiments:
Assay in all cases: inhibition of tumour cell growth, NCI panel, 48 h
786-0 renal = tested on: 786-0 renal
HCT-116 colon = tested on: HCT-116 colon
HT29 colon = tested on: HT29 colon
K-562 leukemia = tested on: K-562 leukemia
M14 melanoma = tested on: M14 melanoma
NCI-H226 lung = tested on: NCI-H226 lung
NCI/ADR-RES ovarian = tested on: NCI/ADR-RES ovarian
OVCAR-3 ovarian = tested on: OVCAR-3 ovarian
PC-3 prostate = tested on: PC-3 prostate
SW-620 colon = tested on: SW-620 colon
A549 NSCLC = tested on: A549 NSCLC
SK-MEL-2 melanoma = tested on: SK-MEL-2 melanoma
A498 renal = tested on: A498 renal

Compound	TGI (786-0 renal) [µM]	TGI (HCT-116 colon) [µM]	TGI (HT29 colon) [µM]	TGI (K-562 leukemia) [µM]	TGI (M14 melanoma) [µM]	TGI (NCI-H226 lung) [µM]	TGI (NCI/ADR-RES ovarian) [µM]	TGI (OVCAR-3 ovarian) [µM]	TGI (PC-3 prostate) [µM]	TGI (SW-620 colon) [µM]	TGI (A549 NSCLC) [µM]	TGI (SK-MEL-2 melanoma) [µM]	TGI (A498 renal) [µM]
O=C1Oc2cc3c(c4cccc1c24)O[C@H](c1ccccc1)[C@@H](c1ccccc1)[C@@H]3c1ccc(Cl)cc1	> 100	> 100	> 100	> 100	> 100	> 100	> 100	> 100	> 100	> 100			
CC(C)(C)S(=O)OC12CC3CC(CC(C3)C1)C2 (centres undefined)	> 100	> 100	> 100		> 100	> 100		> 100		> 100	> 100	> 100	
CCOC(OC1=C(C#N)CCCC1)C(C)[Se]c1ccccc1 (centres undefined)	31.4	> 100	> 100	> 100	> 100	> 100		> 100			> 100	> 100	> 100
O=c1oc2ccc([N+](=O)[O-])cc2c(Nc2ccc3c(c2)S(=O)(=O)c2ccccc2O3)c1[N+](=O)[O-]	> 100	> 100	> 100	> 100	> 100	96.8	> 100	> 100	> 100	> 100	> 100	> 100	
CN(C)CC1CN=C(NC(=O)Nc2ccccc2)O1 (centres undefined)	> 100	> 100	> 100	> 100	> 100	> 100	> 100		> 100	> 100	> 100	> 100	> 100
COc1ccc(N=[N+]([O-])c2ccc(OC)cc2)cc1	> 100	> 100	> 100	> 100	> 100		> 100	> 100	> 100		> 100	> 100	> 100
COc1cccc(-c2nc(-c3cnccn3)n(COCCO)n2)c1	> 100	> 100	> 100	> 100	> 100		> 100	> 100	> 100	> 100	> 100		
Cc1cc(Cl)ccc1C1OC(=O)c2c1ccc1ccccc21 (centres undefined)	> 100	> 100	> 100	> 100	> 100	> 100		> 100		> 100	> 100	> 100	> 100
CC(C)(C)OC(=O)N(CCCCNCc1ccc2ccccc2c1)CCCNCc1ccc2ccccc2c1	2.8	2.4	2.17	1.11		3.08	3.02		4.06	3.54	3.82		3.47
Cc1ccc(S(=O)(=O)c2c(N)n(CCN(C)C)c3nc4ccccc4nc23)cc1	> 100	> 100	> 100	> 100	> 100	> 100		> 100			> 100	> 100	
N#Cc1sc2c(c1O)c(=O)n(-c1ccccc1)c(=S)n2-c1ccccc1	> 100		> 100	> 100	> 100	> 100		> 100		> 100	> 100	> 100	
CC1=C(C(=O)OC(C)C)C(c2ccccc2C(F)(F)F)C(C(=O)OC(CO[N+](=O)[O-])CO[N+](=O)[O-])=C(C)N1 (centres undefined)	14	16.6	26.3	41.7	23.9	38.5	30.6	28.3	12.2	23.3	33	47.1	
C=CCN1CN(c2ccccc2)C2(CCN(CCCC3(c4ccc(F)cc4)OCCO3)CC2)C1=O	33.6	28.4	20.4	25.4	30.6	36.2	28.2	27.7	31.7	36.9	42.9		
N#CCCN(CCN(CCC#N)C(=O)Nc1ccccc1)C(=O)Nc1ccccc1	> 100	> 100	> 100	> 100	> 100	> 100	> 100		> 100	> 100	> 100	> 100	> 100
COc1ccc(CCc2nccn2C)cc1OC	> 100	> 100	> 100	> 100	> 100		> 100	> 100	> 100	> 100	> 100	> 100	> 100
CN(C)Cc1cc(C(C)(C)C)cc(C2CCCCC2)c1O	41.5	> 100	13.5	24.5	> 100	31.2	44.4	28.3	26.4	30.2	26.5	35	
CCC(=O)C(C(C)/C=C/CCSc1ccccc1)C(O)CCCCCC(=O)OC (centres undefined)	> 100	> 100	> 100	> 100	> 100	> 100	> 100	> 100	> 100	> 100	> 100	> 100	
CCCCNC(=S)/N=C/c1c(O)c2ccccc2[nH]c1=O	> 10		> 10	> 10	> 10	> 10	> 10	> 10	> 10	> 10	> 10		> 10
COP(=O)(OC)/C(=C\c1cn(C(c2ccccc2)(c2ccccc2)c2ccccc2)cn1)NC(C)=O	> 100	> 100	> 100	> 100	> 100	> 100	> 100	> 100	> 100	> 100	> 100		> 100
C[C@]12CC[C@H](O)CC1=CC[C@@H]1C2CC[C@]2(C)Nc3c(cnn3-c3ccc(F)cc3)CC12 (some centres undefined)	16	> 100	> 100	> 100	> 100	> 92.7	> 100	> 100	> 100	> 100	> 100		> 47.6

Compound	TGI (786-0 renal) [µM]	TGI (HCT-116 colon) [µM]	TGI (HT29 colon) [µM]	TGI (K-562 leukemia) [µM]	TGI (M14 melanoma) [µM]	TGI (NCI-H226 lung) [µM]	TGI (NCI/ADR-RES ovarian) [µM]	TGI (OVCAR-3 ovarian) [µM]	TGI (PC-3 prostate) [µM]	TGI (SW-620 colon) [µM]	TGI (A549 NSCLC) [µM]	TGI (SK-MEL-2 melanoma) [µM]	TGI (A498 renal) [µM]
COCCOC(=O)C(C)=[N+]=[N-]	> 100	> 100	> 100	> 100		> 100	> 100	> 100	> 100	> 100			> 100
CC(C)C(NCc1c(O)ccc2c(-c3ccccc3)cc(=O)oc12)C(=O)O (centres undefined)	> 100	> 100	> 100	> 100	> 100	> 100	> 100	> 100	> 100	> 100	> 100	> 100	
COc1cc(C(=O)Oc2c(C#N)sc3c2c(=O)n(-c2ccccc2)c(=S)n3-c2ccccc2)cc(OC)c1OC	> 100	35.5	22.4	82.2	25.6	32.7	41.3	> 100	> 100	68	95.3		19.6
COc1ccc2c(c1)CCC(OS(=O)(=O)CC13CCC(CC1=O)C3(C)C)C2=O (centres undefined)	40.4	53.3		> 100	> 100	65.2		66.9		69.7	78	55.8	39.1
CC(CCCOC(c1ccccc1)(c1ccccc1)c1ccccc1)OC(=O)Nc1ccccc1 (centres undefined)	29.9	23	25.8	32.4	27.2	25.6		26.9		27.4	23.2		
FC1=C2CCCCCC2SC1(F)F (centres undefined)	> 100	> 100	> 100	47.8	> 100	> 100	> 100	> 100	> 100	28.9	> 100	> 100	
CC1=C(C(=O)Nc2ccc([N+](=O)[O-])cc2)C(c2ccccc2F)C(C(=O)Nc2ccc([N+](=O)[O-])cc2)=C(C)N1	> 100	31.5	95.2	> 100	49.4	79.7		39.8		> 100	> 100	24.7	34.9
CCC(=O)N/N=C(\C=C\c1cccc(O)c1)c1sc(Nc2ccc(C)cc2[N+](=O)[O-])nc1C	> 100	> 100	40.6	> 100	> 100	> 100		> 100		> 100	> 100	> 100	> 100
Cc1ccc(NC(=O)C(=O)Cc2cc[n+]([O-])cc2)cc1	> 100	> 100	> 100	> 100	> 100	> 100		> 100		> 100	> 100	> 100	> 100
CCOC(=O)C1=C(Nc2ccc(Cl)c(Cl)c2)OC/C1=N\NS(=O)(=O)c1ccc(C)cc1	> 100	> 100		> 100	> 100	> 100		> 100		> 100	> 100	> 100	> 100
CN(C)Cc1cc(N=Nc2ccc(Cl)cc2)ccc1OC(=O)c1ccccc1	27.8	29.9	27.5	35.8		54.3	45.4	32.3	29	30.5	13.6		31.5
CC(=O)C1=CCC2c3[nH]c4ccccc4c3CCN2C1 (centres undefined)	> 100	> 100	> 100	91.3	> 100	> 100		> 100		> 100	> 100	> 100	> 100
CC1=NN(C(=O)CC(=O)Nc2cccc(Cl)c2)C(=O)C1N=Nc1ccc(C(=O)O)cc1 (centres undefined)	> 100	> 100	> 100	> 100	> 100		> 100	> 100	> 100	> 100	> 100	> 100	> 100
CCC1CN2CCC3(c4ccccc4)CC(C(=O)OC)=CC1C23 (centres undefined)	31.9	29.4	31.7	24.9	28.2	36.2		33.8		31.8	35.8		33.9
O=C(CSC1=NNC2(C(=O)N1)c1ccccc1-c1ccccc12)NC(=S)Nc1ccccc1	> 10	> 10	> 10	> 10	> 10	> 10	> 10		> 10	> 10	> 10		
O=C(Nc1ccn(CCI)c(=O)n1)c1ccccc1	> 100	> 100	> 100	> 100	> 100	> 100		> 100		> 100	> 100	> 100	> 100
COc1ccc(NC2CC(C)N(C(=O)c3ccccc3)O2)cc1 (centres undefined)	> 10	> 10	> 10	> 10	> 10		> 10	> 10	> 10	> 10	> 10	> 10	
O=C(CC1C(=O)c2ccccc2C1=C1C(=O)c2ccccc2C1=O)c1ccccc1 (centres undefined)	> 100		> 100	> 100	> 100	> 100				> 100	> 100	> 100	> 100
CCOP(=O)(OCC)/C(C#N)=C/c1ccnc2ccccc12	51.2	> 100	37.5		47.6	55.9	> 100	70.6	35.4	> 100	> 100	50.5	> 100
